The results in this text go back to ChEMBL document CHEMBL1138218, “Structure-activity relationship studies of ethyl 2-amino-6-bromo-4-(1-cyano-2-ethoxy-2-oxoethyl)-4H-chromene-3-carboxylate (HA 14-1), an antagonist for antiapoptotic Bcl-2 proteins to overcome drug resistance in cancer” (J Med Chem, 2006).

The target in assay [1] is T1, Apoptosis regulator Bcl-2 (Homo sapiens, UniProt P10415). As to the kind of experiment: Growth inhibition of Jurkat cell overexpressing Bcl2. Format: functional, cell-based.
Assay [2] concerns the target T2, Bcl-2-like protein 1 (Homo sapiens, UniProt Q07817). Put plainly: Binding affinity to BclXL by FP assay.
In assay [3] the target is T2, Bcl-2-like protein 1. As to the kind of experiment: Growth inhibition of Jurkat cell overexpressing BclXL. Format: functional, cell-based.
The target in assay [4] is T1, Apoptosis regulator Bcl-2. As to the kind of experiment: Binding affinity to Bcl2 by FP assay.
The nature of assay [5]: Ratio of GI50 for Jurkat cells overexpressing Bcl2 or BclXL to normal Jurkat cells. Format: functional, Homo sapiens.
The next assay has as its target T3, Bcl-2-like protein 2 (Homo sapiens, UniProt Q92843).
T3 sequence (Q92843 whole entry): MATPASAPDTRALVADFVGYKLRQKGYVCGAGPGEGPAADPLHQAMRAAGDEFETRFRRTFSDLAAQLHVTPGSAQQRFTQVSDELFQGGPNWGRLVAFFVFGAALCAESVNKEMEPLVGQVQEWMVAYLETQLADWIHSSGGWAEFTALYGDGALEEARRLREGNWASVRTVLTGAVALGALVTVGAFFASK
As to the kind of experiment: Binding affinity to Bclw by FP assay.

In the next assay the test system is Jurkat. Put plainly: Growth inhibition of Jurkat cell. Format: functional. To be noted: Homo sapiens.
Another assay concerns NCI-H460. As to the kind of experiment: Growth inhibition of NCI-H460 cell. Format: functional. To be noted: Homo sapiens.

Molecules are shown by their SMILES.

T2 sequence (Q07817 whole entry): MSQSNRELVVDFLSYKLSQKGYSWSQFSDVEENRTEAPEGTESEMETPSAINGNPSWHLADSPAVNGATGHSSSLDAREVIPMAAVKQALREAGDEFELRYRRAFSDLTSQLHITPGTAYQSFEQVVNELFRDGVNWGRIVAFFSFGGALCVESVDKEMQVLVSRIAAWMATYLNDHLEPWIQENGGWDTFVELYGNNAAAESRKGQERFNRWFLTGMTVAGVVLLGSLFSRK
T1 sequence (P10415 whole entry): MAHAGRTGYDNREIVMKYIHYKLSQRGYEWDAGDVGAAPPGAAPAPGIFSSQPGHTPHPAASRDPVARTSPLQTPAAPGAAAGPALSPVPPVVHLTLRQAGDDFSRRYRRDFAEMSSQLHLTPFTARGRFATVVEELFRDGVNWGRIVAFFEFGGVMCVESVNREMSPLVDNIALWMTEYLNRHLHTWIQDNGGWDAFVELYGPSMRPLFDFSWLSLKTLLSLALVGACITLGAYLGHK

As usually defined, the GI50 is the concentration at which growth is held to half of that of the control. As usually defined, the Ki is the dissociation constant of the complex between target and ligand, obtained from inhibition or displacement. Read a low Ki as tighter binding. For the compound `CCOC(=O)C1=C(N)Oc2ccc(C)cc2C1C(C#N)C(=O)OCC` (configuration not stated), the GI50 in assay [1] worked out at 37 µM; at Bcl-2-like protein 1 [3], 41 µM; with Jurkat, 29 µM; with NCI-H460, 102 µM. Also, the Ki was found to be 191 µM on Bcl-2-like protein 1 [2], 309 µM in assay [4] and 199 µM at Bcl-2-like protein 2. Also, in assay [5], the RatioGI50 is reported as below 1.41.
For `COc1cccc2c1C(=O)c1c(O)c3c(c(O)c1C2=O)C[C@@](O)(C(=O)CO)C[C@@H]3O[C@H]1C[C@H](N)[C@H](O)[C@H](C)O1` [DOXORUBICIN], the GI50 in assay [1] stood at 26 µM; at Bcl-2-like protein 1 [3], 24 µM; in the assay on Jurkat it was 0.21 µM. Further, the RatioGI50 in assay [5] is given as above 100.
For the compound `CCOC(=O)C1=C(N)Oc2ccc(C3CCCC3)cc2C1C(C#N)C(=O)OCC` (configuration not stated), the GI50 in assay [1] came out at 3.8 µM; on Bcl-2-like protein 1 [3] it was 3.9 µM; in the assay on Jurkat, 3.5 µM; in the assay on NCI-H460 it was 11 µM. Moreover, the Ki on Bcl-2-like protein 1 [2] came out at 36.5 µM; in assay [4], 128 µM; at Bcl-2-like protein 2, 30.8 µM. The RatioGI50 in assay [5] was below 1.1.
With `CCOC(=O)C1=C(N)Oc2ccc(-c3ccc(C(C)(C)C)cc3)cc2C1C(C#N)C(=O)OCC` (configuration not stated), the GI50 in assay [1] was 0.99 µM; on Bcl-2-like protein 1 [3], 0.99 µM; in the assay on Jurkat, 0.8 µM; with NCI-H460, 0.16 µM. The Ki is 21.7 µM at Bcl-2-like protein 1 [2] and 20.3 µM on Bcl-2-like protein 2. Further, the RatioGI50 in assay [5] is given as below 1.24.
For `CCOC(=O)C1=C(N)Oc2ccc(CC)cc2C1C(C#N)C(=O)OCC` (configuration not stated), the GI50 is 12 µM in assay [1], 13 µM at Bcl-2-like protein 1 [3], 13 µM in the assay on Jurkat and 79.1 µM with NCI-H460. For the same compound, the Ki at Bcl-2-like protein 1 [2] worked out at 135 µM; in assay [4] it was 210 µM; on Bcl-2-like protein 2, 121 µM. Besides, the RatioGI50 in assay [5] is on record as below 1.
Turning to `CCOC(=O)C1=C(N)Oc2ccccc2C1C(C#N)C(=O)OCC` (configuration not stated), the GI50 in assay [1] came out at 94 µM; at Bcl-2-like protein 1 [3] it was 99 µM; with Jurkat, 66 µM; in the assay with NCI-H460, 157 µM. The Ki on Bcl-2-like protein 1 [2] is 570 µM; in assay [4], 531 µM; at Bcl-2-like protein 2, 697 µM. Moreover, the RatioGI50 in assay [5] is on record as below 1.5.
For the compound `Nc1nc2[nH]cnc2c(=S)[nH]1` [THIOGUANINE], the results for the concentration for 50% growth inhibition (GI50) (in assay [1]; on Bcl-2-like protein 1 [3]; with Jurkat) were 147 µM, 183 µM and 13 µM, respectively. In addition, in assay [5], the RatioGI50 was above 11.
As for `CCOC(=O)C1=C(N)Oc2ccc(-c3ccccc3)cc2C1C(C#N)C(=O)OCC` (configuration not stated), the GI50 in assay [1] was found to be 4.2 µM; on Bcl-2-like protein 1 [3], 4.1 µM; with Jurkat, 3.9 µM; in the assay on NCI-H460, 15.9 µM. Besides, the figures for the Ki (at Bcl-2-like protein 1 [2]; in assay [4]; on Bcl-2-like protein 2) were 52.9 µM, 112 µM and 41.2 µM, respectively. Besides, in assay [5], the RatioGI50 is below 1.07.
Consider `CCCc1ccc2c(c1)C(C(C#N)C(=O)OCC)C(C(=O)OCC)=C(N)O2` (configuration not stated), for which the GI50 in assay [1] turned out to be 5.7 µM; on Bcl-2-like protein 1 [3] it was 6.3 µM; in the assay on Jurkat, 5.2 µM; in the assay on NCI-H460, 24.9 µM. Besides, the Ki at Bcl-2-like protein 1 [2] turned out to be 70.7 µM; in assay [4], 128 µM; on Bcl-2-like protein 2 it was 56.7 µM. In addition, the RatioGI50 in assay [5] was below 1.21.
As for `CC(=O)O[C@H]1C(=O)[C@@]2(C)[C@H]([C@H](OC(=O)c3ccccc3)[C@]3(O)C[C@H](OC(=O)[C@H](O)[C@@H](NC(=O)c4ccccc4)c4ccccc4)C(C)=C1C3(C)C)[C@]1(OC(C)=O)CO[C@@H]1C[C@@H]2O` [PACLITAXEL], the GI50 in assay [1] is above 10 µM; at Bcl-2-like protein 1 [3], above 10 µM; with Jurkat it was below 0.01 µM. Further, in assay [5], the RatioGI50 is above 100.
